Structures can show the parent of a compound that is named as a salt.
Tested on: zebrafish lateral line hair cells
Assay: Ototoxic dose response in myo6b::gfp zebrafish larvae
Type: in vivo, Danio rerio
Settings: myo6b::gfp fish; read-out: dose required to elicit 50% of maximal HC damage (EC50)
Protocol: For drug dose response testing, zebrafish of the wildtype genetic background AB (Table 1) and fish that were transgenic for GFP under the myo6b HC-specific promoter (Tg (myo6b:EGFP), Table 1) were raised as described previously ([Westerfield, 2007]; [Farr et al., 2020]). […]
The resulting images were analyzed for dose-response and drug interaction characteristics with the PEPITA software package, which can be found on GitHub (https://github.com/ma-lab-cgidr/PEPITA-tools). […] Manual masks were created on occasion for avoidance of fluorescent contamination, adjusted segmenting for myo6b::gfp fish to remove inner ear HC fluorescence, or exclusion of dead or damaged fish. Each fish was then adjusted for autofluorescence using the fluorophore-free red channel and scored based on the sum of green fluorescence pixel values surrounding 10 of the top 15 brightest pixels in the masked image (Figures 1B–E). These scores were standardized by comparison with the median score of wells containing untreated fish and a score representing no remaining HC fluorescence, both derived for each plate. […]
To further explore the mechanism of macrolide and aminoglycoside antagonism, we fluorescently labeled the aminoglycosides neomycin and gentamicin with Texas Red-X succinimidyl ester to track HC uptake with and without macrolide treatment (Table 1). […] Drug-induced injury was quantified by loss of fluorescence in HCs. […]

## NC[C@@H]1O[C@H](O[C@H]2[C@@H](O)[C@H](O[C@@H]3[C@@H](O)[C@H](N)C[C@H](N)[C@H]3O[C@H]3O[C@H](CN)[C@@H](O)[C@H](O)[C@H]3N)O[C@@H]2CO)[C@H](N)[C@@H](O)[C@@H]1O [Neomycin, Neomycin sulfate hydrate]
  EC50: 20 µM
